The record followed here is US20240246964A1 (Arbutus Biopharma Corporation, priority 2021, published 2024).

Molecules are shown by their SMILES.

Assay [1] concerns the target human PD-L1 (Homo sapiens (Human), UniProt Q9NZQ7). As to the kind of experiment: T cell activation luciferase reporter cell culture system (T Cell Activation Assay). Format: cell-based. The settings on record: luciferase reporter assay; PD-L1 aAPC/CHO-K1 cells with PD-1 effector Jurkat T cells. (Reporter assays use an easily measured gene product as a stand-in for the process of interest.)

For assay [2], the target named is PD-L1 His protein / PD-1 Fc protein (Homo sapiens (Human), UniProt Q9NZQ7). As to the kind of experiment: HTRF Assay (PD-1/PD-L1 interaction). The format is binding. The settings on record: PD-L1 His 6 nM, PD-1 Fc 6 nM. A general note: Time-resolved FRET reads energy transfer from a long-lived donor to a nearby acceptor.
PD-L1 His protein / PD-1 Fc protein, sequence (Q9NZQ7 19-238): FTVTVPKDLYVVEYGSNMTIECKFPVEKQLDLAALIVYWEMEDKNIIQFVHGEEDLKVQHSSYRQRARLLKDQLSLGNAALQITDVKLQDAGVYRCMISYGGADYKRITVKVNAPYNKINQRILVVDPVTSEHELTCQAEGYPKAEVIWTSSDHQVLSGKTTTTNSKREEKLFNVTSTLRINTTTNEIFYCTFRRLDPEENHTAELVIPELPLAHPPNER

human PD-L1, sequence (Q9NZQ7 19-290): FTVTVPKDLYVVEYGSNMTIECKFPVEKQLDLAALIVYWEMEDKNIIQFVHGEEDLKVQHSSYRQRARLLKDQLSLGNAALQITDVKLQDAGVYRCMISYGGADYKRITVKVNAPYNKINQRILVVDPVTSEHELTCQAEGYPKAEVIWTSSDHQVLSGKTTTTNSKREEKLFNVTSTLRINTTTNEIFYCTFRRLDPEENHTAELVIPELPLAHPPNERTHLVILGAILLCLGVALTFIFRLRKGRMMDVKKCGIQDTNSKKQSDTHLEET

Consider `COc1nc(-c2cccc(-c3ccnc(-c4ccc5c(CNC[C@H](C)OC)cn(C)c5c4)c3Cl)c2Cl)ccc1CNC[C@@H]1CCC(=O)N1` [Compound 40, (S)-5-((((6-(2-chloro-3-(3-chloro-2-(3-((((S)-2-methoxypropyl)amino)methyl)-1-methyl-1H-indol-6-yl)pyridin-4-yl)phenyl)-2-methoxypyridin-3-yl)methyl)amino)methyl)pyrrolidin-2-one], for which the half-maximal effective concentration (EC50) (usually the concentration needed to bring the measured effect to its halfway point) in assay [1] was 4150 nM. Besides, the 50% inhibitory concentration (IC50) (in general, the midpoint of a concentration-inhibition curve) in assay [2] turned out to be 10.3 nM.

On to `COc1nc(-c2cccc(-c3ccnc(-c4ccc5c(CNC[C@@H]6CCCO6)cn(C)c5c4)c3Cl)c2Cl)ccc1CNC[C@@H]1CCC(=O)N1` [Compound 41, (S)-5-((((6-(2-chloro-3-(3-chloro-2-(1-methyl-3-(((((S)-tetrahydrofuran-2-yl)methyl)amino)methyl)-1H-indol-6-yl)pyridin-4-yl)phenyl)-2-methoxypyridin-3-yl)methyl)amino)methyl)pyrrolidin-2-one], for which, in assay [1], the response was half-maximal at 164 nM (EC50). The IC50 in assay [2] came out at 33.9 nM.

As to `COc1nc(-c2cccc(-c3ccnc(-c4ccc5c(CNC6CCOCC6)cn(C)c5c4)c3Cl)c2Cl)ccc1CNC[C@@H]1CCC(=O)N1` [Compound 42, (S)-5-((((6-(2-chloro-3-(3-chloro-2-(1-methyl-3-(((tetrahydro-2H-pyran-4-yl)amino)methyl)-1H-indol-6-yl)pyridin-4-yl)phenyl)-2-methoxypyridin-3-yl)methyl)amino)methyl)pyrrolidin-2-one], in assay [1], the EC50 stood at 88.6 nM. 0.1 nM corresponded to half-maximal inhibition in assay [2] (IC50).

With `COc1nc(-c2cccc(-c3ccnc(-c4ccc5c(CNC6CCS(=O)(=O)CC6)cn(C)c5c4)c3Cl)c2Cl)ccc1CNC[C@@H]1CCC(=O)N1` [Compound 43, (S)-5-((((6-(2-chloro-3-(3-chloro-2-(3-(((1,1-dioxidotetrahydro-2H-thiopyran-4-yl)amino)methyl)-1-methyl-1H-indol-6-yl)pyridin-4-yl)phenyl)-2-methoxypyridin-3-yl)methyl)amino)methyl)pyrrolidin-2-one], the response in assay [1] was half-maximal at 62.5 nM (EC50). The same compound registered an IC50 in assay [2] of 0.2 nM.

`COc1nc(-c2cccc(-c3ccnc(-c4cc5c(=O)n(C)c(CN6CC7(CC(O)C7)C6)nn5c4)c3Cl)c2Cl)ccc1CNC[C@@H]1CCC(=O)N1` [Compound 48, (S)-6-(3-chloro-4-(2-chloro-3-(6-methoxy-5-((((5-oxopyrrolidin-2-yl)methyl)amino)methyl)pyridin-2-yl)phenyl)pyridin-2-yl)-2-((6-hydroxy-2-azaspiro[3.3]heptan-2-yl)methyl)-3-methylpyrrolo[2,1-f][1,2,4]triazin-4(3H)-one] had a concentration for a half-maximal effect (EC50) in assay [1] of 18.7 nM. In assay [2], this compound showed an IC50 of 0.04 nM.

Consider `COc1nc(-c2cccc(-c3ccnc(-c4cnc5cc(CNC[C@@H]6CCC(=O)N6)ccc5c4)c3Cl)c2Cl)ccc1CNC[C@@H]1CCC(=O)N1` [Compound 52, (S)-5-((((6-(2-chloro-3-(3-chloro-2-(7-(((((S)-5-oxopyrrolidin-2-yl)methyl)amino)methyl)quinolin-3-yl)pyridin-4-yl)phenyl)-2-methoxypyridin-3-yl)methyl)amino)methyl)pyrrolidin-2-one], for which the half-maximal effective concentration (EC50) in assay [1] was 127 nM. For the same compound, the midpoint of inhibition in assay [2], the IC50, lay at 0.2 nM.

In assay [1], `COc1nc(-c2cccc(-c3ccnc(-c4ccc5c(CNC6CN(C(C)=O)C6)cn(C)c5c4)c3Cl)c2Cl)ccc1CNC[C@@H]1CCC(=O)N1` [Compound 55, (S)-5-((((6-(3-(2-(3-(((1-acetylazetidin-3-yl)amino)methyl)-1-methyl-1H-indol-6-yl)-3-chloropyridin-4-yl)-2-chlorophenyl)-2-methoxypyridin-3-yl)methyl)amino)methyl)pyrrolidin-2-one] showed an EC50 of 127 nM. Also, inhibition in assay [2] was half-maximal at 4.9 nM (IC50).

`COc1nc(-c2cccc(-c3ccnc(-c4ccc5c(CN(C)C6CCN(C(C)=O)CC6)cn(C)c5c4)c3Cl)c2Cl)ccc1CNC[C@@H]1CCC(=O)N1` [Compound 56, (S)-5-((((6-(3-(2-(3-(((1-acetylpiperidin-4-yl)(methyl)amino)methyl)-1-methyl-1H-indol-6-yl)-3-chloropyridin-4-yl)-2-chlorophenyl)-2-methoxypyridin-3-yl)methyl)amino)methyl)pyrrolidin-2-one] registered a 50% effective concentration (EC50) in assay [1] of 36.8 nM. For the same compound, the IC50 in assay [2] came out at 4 nM.

The compound `COc1nc(-c2cccc(-c3ccnc(-c4ccc5c(c4)CN(CCNC[C@@H]4CCC(=O)N4)C5=O)c3Cl)c2Cl)ccc1CNC[C@@H]1CCC(=O)N1` [Compound 66, 5-(3-chloro-4-(2-chloro-3-(6-methoxy-5-(((((S)-5-oxopyrrolidin-2-yl)methyl)amino)methyl)pyridin-2-yl)phenyl)pyridin-2-yl)-2-(2-((((S)-5-oxopyrrolidin-2-yl)methyl)amino)ethyl)isoindolin-1-one] yielded an EC50 in assay [1] of 158 nM. 0.6 nM corresponded to half-maximal inhibition in assay [2] (IC50).

`COc1nc(-c2cccc(-c3ccnc(-c4ccc5c(CNC6CCC(F)(F)CC6)cn(C)c5c4)c3Cl)c2Cl)ccc1CNC[C@@H]1CCC(=O)N1` [Compound 73, (S)-5-((((6-(2-chloro-3-(3-chloro-2-(3-(((4,4-difluorocyclohexyl)amino)methyl)-1-methyl-1H-indol-6-yl)pyridin-4-yl)phenyl)-2-methoxypyridin-3-yl)methyl)amino)methyl)pyrrolidin-2-one]: the midpoint of the response in assay [1], the EC50, lay at 184 nM. This compound also registered an IC50 in assay [2] of 0.9 nM.

`COc1nc(-c2cccc(-c3ccnc(-c4cc5c(=O)n(C)c(CN[C@H]6C[C@](C)(O)C6)nn5c4)c3Cl)c2Cl)cc(Cl)c1CNC[C@@H]1CCC(=O)N1` [Compound 87, 6-(3-chloro-4-(2-chloro-3-(4-chloro-6-methoxy-5-(((((S)-5-oxopyrrolidin-2-yl)methyl)amino)methyl)pyridin-2-yl)phenyl)pyridin-2-yl)-2-((((1r,3r)-3-hydroxy-3-methylcyclobutyl)amino)methyl)-3-methylpyrrolo[2,1-f][1,2,4]triazin-4(3H)-one] returned an EC50 in assay [1] of 312 nM. Also, the IC50 in assay [2] amounted to 3 nM.

On to `COc1nc(-c2cccc(-c3ccnc(-c4cc5c(=O)n(C)c(CNC[C@H](C)O)nn5c4)c3Cl)c2Cl)ccc1CNC[C@@H]1CCC(=O)N1` [Compound 91, 6-(3-chloro-4-(2-chloro-3-(6-methoxy-5-(((((S)-5-oxopyrrolidin-2-yl)methyl)amino)methyl)pyridin-2-yl)phenyl)pyridin-2-yl)-2-((((S)-2-hydroxypropyl)amino)methyl)-3-methylpyrrolo[2,1-f][1,2,4]triazin-4(3H)-one], for which, in assay [1], the 50% effective concentration (EC50) is 221 nM. The compound further yielded an IC50 in assay [2] of 4.4 nM.

With `CNCc1cn(C)c2nc(-c3cccc(-c4ccnc(-c5ccc(CNC[C@@H]6CCC(=O)N6)c(OC)c5)c4Cl)c3Cl)ccc12` [Compound 94, (S)-5-(((4-(3-chloro-4-(2-chloro-3-(1-methyl-3-((methylamino)methyl)-1H-pyrrolo[2,3-b]pyridin-6-yl)phenyl)pyridin-2-yl)-2-methoxybenzyl)amino)methyl)pyrrolidin-2-one], the EC50 in assay [1] is 47.5 nM. This compound registered a half-inhibitory concentration (IC50) in assay [2] of 0.5 nM.

Compound `COc1cc(-c2nccc(-c3cccc(-c4ccc5c(CNC6CN(C(C)=O)C6)cn(C)c5n4)c3Cl)c2Cl)ccc1CNC[C@@H]1CCC(=O)N1` [Compound 95, (S)-5-(((4-(4-(3-(3-(((1-acetylazetidin-3-yl)amino)methyl)-1-methyl-1H-pyrrolo[2,3-b]pyridin-6-yl)-2-chlorophenyl)-3-chloropyridin-2-yl)-2-methoxybenzyl)amino)methyl)pyrrolidin-2-one] had an EC50 in assay [1] of 104 nM. The compound further had an IC50 in assay [2] of 0.6 nM.
